In publication PMC6025042, “HSQC-TOCSY Fingerprinting-Directed Discovery of Antiplasmodial Polyketides from the Marine Ascidian-Derived Streptomyces sp. (USC-16018)” (Marine Drugs, 2018):
Read-outs that look alike come from different tables or passages of the source. One block for each molecule: values may come before it.

What was measured:
Plasmodium yoelii = conditions: cited from earlier work; for doses needed to clear the animals from the parasites: P. yoelii infected mice
P. falciparum Dd2 = assay: antiplasmodial imaging assay, P. falciparum Dd2; assay type: cell-based, Plasmodium falciparum; conditions: for inhibition at 40 µM / % Inhibition at 40 µM, P. falciparum Dd2: chloroquine- and pyrimethamine-resistant strain; for IC50: read-out: IC50, P. falciparum Dd2
Method: (§1) The parasites were subjected to two rounds of sorbitol synchronization before undergoing compound treatment. The ring stage parasites were exposed to the experimental compounds in 384-wells imaging microplates (PerkinElmer CellCarrier, Waltham, MA, USA), as previously described in Reference. The plates were incubated for 72h at 37 °C, 90% N2, 5% CO2, 5% O2, then the parasites were stained with 2-(4-amidinophenyl)-1H–indole-6-carboxamidine (DAPI), and imaged using an Opera QEHS micro-plate confocal imaging system (PerkinElmer, Waltham, MA, USA). The images were analysed as previously described in Reference.
(§2) The raw data were normalized using the in-plate positive and negative controls to obtain the normalized % inhibition data, which was then used to calculate the IC50 values through a 4-parameter logistic curve fitting in the GraphPad Prism (Version 6.0, La Jolla, CA, USA). The experiments were carried out in two independent biological replicates, each consisting of two technical replicates.

P. falciparum 3D7 = assay: antiplasmodial imaging assay, P. falciparum 3D7; assay type: cell-based, Plasmodium falciparum; conditions: for inhibition at 40 µM / % Inhibition at 40 µM, P. falciparum 3D7: chloroquine sensitive strain; for IC50: read-out: IC50, P. falciparum 3D7
Method: as §1, §2

HEK-293 Cells = assay: cells; assay type: cell-based; conditions: for inhibition at 40 µM: read-out: % Inhibition at 40 µM, HEK-293 Cells; for IC50: value in brackets
Method: Human Embryonic Kidney cells (HEK293) were maintained in the Dulbecco’s Modified Eagle Medium (DMEM) medium supplemented with 10% FBS. The HEK293 cells were exposed to the compounds in TC-treated 384-wells plates (Falcon, Durham, NC, USA). […] After an additional 5–6 h incubation at standard conditions, the total fluorescence (excitation/emission: 530 nm/595 nm) was measured using the Envision plate reader (PerkinElmer, Waltham, MA, USA).
as §2

[1] = parameters: method as in PMID 21454186; conditions: cited from earlier work
[2] = system: chloroquine-sensitive and chloroquine-resistant Plasmodium falciparum strains; parameters: method as in PMID 14514358; conditions: chloroquine-sensitive and chloroquine-resistant strains equally; read-out: IC50, growth of P. falciparum; cited from earlier work
K1 strain = system: K1 strain; parameters: method as in PMID 27554496; conditions: read-out: IC50 against the K1 strain; cited from earlier work
[3] = Plasmodium falciparum, DD2, 40 µM, 72 h, read-out: % Inhibition at 40 µM, P. falciparum Dd2
[4] = Plasmodium falciparum, DD2, 72 h, value in brackets
[5] = Plasmodium falciparum, 3D7, 40 µM, 72 h, read-out: % Inhibition at 40 µM, P. falciparum 3D7
[6] = Plasmodium falciparum, 3D7, 72 h, value in brackets
[7] = Homo sapiens, HEK293, 40 µM, 72 h
[8] = Plasmodium falciparum, DD2, 72 h, read-out: % Inhibition at 40 µM, P. falciparum Dd2, 40 µM, 72 h
[9] = Plasmodium falciparum, 3D7, 72 h, read-out: % Inhibition at 40 µM, P. falciparum 3D7, 40 µM, 72 h
[10] = 40 µM, 72 h, listed as Herbimycin G (1)
[11] = 40 µM, 72 h, listed as Elaiophylin (2)
[12] = 72 h, value in brackets, listed as Elaiophylin (2)

Molecule: C=CCNC1=C2C[C@@H](C)C[C@H](OC)[C@H](O)[C@@H](C)/C=C(\C)[C@H](OC(N)=O)[C@@H](OC)/C=C\C=C(/C)C(=O)NC(=CC1=O)C2=O [17-AAG, 17-N-allylamino-17-demethoxygeldanamycin]
- doses needed to clear the animals from the parasites (Plasmodium yoelii): a second dose of 17-AAG was needed
- efficacy against Plasmodium yoelii in mouse models (Plasmodium yoelii; intra-peritoneal, doses of 7.2 mg/kg): effective against Plasmodium yoelii in mouse models
- time to complete clearance of parasitemia after reinfection (Plasmodium yoelii; treated mice reinfected with P. yoelii): 9 days

- IC50 (P. falciparum Dd2; [4]): 1.3 nM
- IC50 (P. falciparum 3D7; [6]): 0.9 nM
Molecule: C[C@H]1[C@H](OC(=O)CCC(=O)O)O[C@@H]2O[C@@]3(C)CC[C@H]4[C@H](C)CC[C@@H]1[C@@]24OO3 [Artesunate]
- inhibition at 40 µM (P. falciparum Dd2; [3]): 98.4%
- inhibition at 40 µM (P. falciparum 3D7; [5]): 99.6%
- inhibition at 40 µM (HEK-293 Cells; [7]): 50.6%

Molecule: CCN(CC)CCCC(C)Nc1ccnc2cc(Cl)ccc12 (stereo not shown) [Chloroquine]
- inhibition at 40 µM (P. falciparum Dd2; [8]): 96.5%
- IC50 (P. falciparum Dd2; Plasmodium falciparum, DD2, 72 h): 87.9 nM
- doses needed to clear the animals from the parasites (Plasmodium yoelii): a single dose of chloroquine was sufficient to fully clear the animals from the parasites
- inhibition at 40 µM (P. falciparum 3D7; [9]): 98.8%
- IC50 (P. falciparum 3D7; Plasmodium falciparum, 3D7, 72 h): 10 nM
- inhibition at 40 µM (HEK-293 Cells; Homo sapiens, HEK293, 72 h): 40.9%

- IC50 (P. falciparum Dd2; [4]): 0.6 nM
- IC50 (P. falciparum 3D7; [6]): 0.4 nM
Molecule: C[C@H]1[C@@H](O)O[C@@H]2O[C@@]3(C)CC[C@H]4[C@H](C)CC[C@@H]1[C@@]24OO3 [Dihydroartemisinin]
- inhibition at 40 µM (P. falciparum Dd2; [3]): 98%
- inhibition at 40 µM (P. falciparum 3D7; [5]): 99.9%
- inhibition at 40 µM (HEK-293 Cells; [7]): 37.9%

Molecule: COC1=C2C[C@@H](C)C[C@H](OC)[C@H](O)[C@@H](C)/C=C(\C)[C@H](OC(N)=O)[C@@H](OC)/C=C\C=C(/C)C(=O)NC(=CC1=O)C2=O [Geld, geldanamycin]
- water solubility (in words) [1]: low water solubility
- IC50 [2]: 20 nM

- IC50 (P. falciparum Dd2; [4]): 114 nM
- IC50 (P. falciparum 3D7; [6]): 149 nM
Molecule: COc1ccc(C[C@H](N)C(=O)N[C@H]2[C@@H](O)[C@H](n3cnc4c(N(C)C)ncnc43)O[C@@H]2CO)cc1 [Puromycin]
- inhibition at 40 µM (P. falciparum Dd2; [3]): 99.1%
- inhibition at 40 µM (P. falciparum 3D7; [5]): 99%
- inhibition at 40 µM (HEK-293 Cells; [7]): 103%
- IC50 (HEK-293 Cells; Homo sapiens, HEK293, 72 h): 1410 nM

- IC50 (P. falciparum 3D7; [6]): 4.7 nM
Molecule: CCc1nc(N)nc(N)c1-c1ccc(Cl)cc1 [Pyrimethamine]
- inhibition at 40 µM (P. falciparum Dd2; [3]): 23.2%
- inhibition at 40 µM (P. falciparum 3D7; [5]): 98.7%
- inhibition at 40 µM (HEK-293 Cells; [7]): 68.4%

- IC50 (P. falciparum Dd2; [4]): 8.3 nM
- IC50 (P. falciparum 3D7; [6]): 7.4 nM
Molecule: COc1ccc2nc3cc(Cl)ccc3c(Nc3cc(CN4CCCC4)c(O)c(CN4CCCC4)c3)c2n1 [Pyronaridine]
- inhibition at 40 µM (P. falciparum Dd2; [3]): 97.8%
- inhibition at 40 µM (P. falciparum 3D7; [5]): 99.9%
- inhibition at 40 µM (HEK-293 Cells; [7]): 98.7%
- IC50 (HEK-293 Cells; Homo sapiens, HEK293, 72 h): 2830 nM

Molecule: CO[C@H]1[C@@H](OC)C[C@H](C)[C@@H](OC)C2=C[C@@H](O)C[C@@H](NC(=O)/C(C)=C/C=C\[C@H](OC)[C@@H](OC(N)=O)/C(C)=C/[C@@H]1C)C2=O [compound 1, herbimycin G]
- % Inhibition at 40 µM, P. falciparum Dd2 (P. falciparum Dd2; [10]): 81.7%
- inhibition at 40 µM (P. falciparum Dd2; [8]): > 75%
- % Inhibition at 40 µM, P. falciparum 3D7 (P. falciparum 3D7; 40 µM, 72 h): > 75%
- % Inhibition at 40 µM, P. falciparum 3D7 (P. falciparum 3D7; [10]): 77.2%
- antiplasmodial activity (in words) (P. falciparum 3D7; 3D7 and Dd2 strains): weak antiplasmodial activity
- inhibition at 40 µM (P. falciparum 3D7; [9]): 77%
- % Inhibition at 40 µM, HEK-293 Cells (HEK-293 Cells; 40 µM, 72 h): no effect
- cytotoxicity (in words) (HEK-293 Cells; HEK293): no cytotoxicity

Molecule: CC(C)C[C@@H]1NC(=O)[C@@H]2CCCN2C1=O [compound 3, Cyclo-L-Pro-L-Leu]
- inhibition at 40 µM (P. falciparum Dd2; [3]): 39%
- inhibition at 40 µM (P. falciparum 3D7; [5]): 45.9%
- % Inhibition at 40 µM, HEK-293 Cells (HEK-293 Cells; 40 µM, 72 h): no effect

Molecule: O=C1N[C@@H](Cc2ccccc2)C(=O)N2CCC[C@@H]12 [compound 4, Cyclo-L-Pro-L-Phe]
- % Inhibition at 40 µM, P. falciparum Dd2 (P. falciparum Dd2; 40 µM, 72 h): no effect
- % Inhibition at 40 µM, P. falciparum 3D7 (P. falciparum 3D7; 40 µM, 72 h): no effect
- % Inhibition at 40 µM, HEK-293 Cells (HEK-293 Cells; 40 µM, 72 h): no effect

Molecule: CC(C)[C@@H]1NC(=O)[C@@H]2CCCN2C1=O [compound 5, Cyclo-L-Pro-L-Val]
- % Inhibition at 40 µM, P. falciparum Dd2 (P. falciparum Dd2; 40 µM, 72 h): no effect
- % Inhibition at 40 µM, P. falciparum 3D7 (P. falciparum 3D7; 40 µM, 72 h): no effect
- % Inhibition at 40 µM, HEK-293 Cells (HEK-293 Cells; 40 µM, 72 h): no effect

Molecule: O=C1N[C@@H](Cc2ccc(O)cc2)C(=O)N2CCC[C@@H]12 [compound 6, Cyclo-L-Pro-L-Tyr]
- % Inhibition at 40 µM, P. falciparum Dd2 (P. falciparum Dd2; 40 µM, 72 h): no effect
- % Inhibition at 40 µM, P. falciparum 3D7 (P. falciparum 3D7; 40 µM, 72 h): no effect
- % Inhibition at 40 µM, HEK-293 Cells (HEK-293 Cells; 40 µM, 72 h): no effect

Molecule: elaiophylin [compound 2]
- IC50 (K1 strain): 214 nM
- % Inhibition at 40 µM, P. falciparum Dd2 (P. falciparum Dd2; 40 µM, 72 h): > 75%
- % Inhibition at 40 µM, P. falciparum Dd2 (P. falciparum Dd2; [11]): 86.1%
- IC50 (P. falciparum Dd2; [12]): 598 nM
- % Inhibition at 40 µM, P. falciparum 3D7 (P. falciparum 3D7; 40 µM, 72 h): > 75%
- % Inhibition at 40 µM, P. falciparum 3D7 (P. falciparum 3D7; [11]): 96.6%
- IC50 (P. falciparum 3D7; [12]): 778 nM
- % Inhibition at 40 µM, HEK-293 Cells (HEK-293 Cells; 40 µM, 72 h): 101.9%
- IC50 (HEK-293 Cells; 72 h): 1440 nM
- cytotoxicity (in words) (HEK-293 Cells; HEK293): highly cytotoxic
